Data as given in ChEMBL document CHEMBL2375306, “Antimicrobial peptides containing unnatural amino acid exhibit potent bactericidal activity against ESKAPE pathogens” (Bioorg Med Chem, 2013).
Values after ≈ are worked out from the molar mass of the structure shown. Square brackets hold non-standard residues; d marks the D form. Peptide text beside a SMILES is read from it. * marks the point of attachment. ξ: configuration not given here. Pro(3ξ,4ξ-(CH2)4) = O=C(O)[C@H]1NCC2CCCCC21; Phe(4-F) = N[C@@H](Cc1ccc(F)cc1)C(=O)O; Tic = O=C(O)[C@@H]1Cc2ccccc2CN1; X1 = CC(=O)NC(=O)[C@H](CN)N*; Dap = NC[C@H](N)C(=O)O; βAla = NCCC(=O)O

Tests used:
Format in all cases: functional
Pseudomonas aeruginosa = assay: Antibacterial activity against Pseudomonas aeruginosa PAO1 after 24 hrs by broth microdilution method; conditions: PAO1, 24 h
Enterococcus faecium = assay: Antibacterial activity against Enterococcus faecium MMC4 after 24 hrs by broth microdilution method; conditions: MMC4, 24 h
Klebsiella pneumoniae = assay: Antibacterial activity against Klebsiella pneumoniae BAMS clinical isolate 07-18 after 24 hrs by broth microdilution method; conditions: BAMS clinical isolate 07-18, 24 h
Acinetobacter baumannii = assay: Antibacterial activity against Acinetobacter baumannii WRAIR clinical isolate 13 after 24 hrs by broth microdilution method; conditions: WRAIR clinical isolate 13, 24 h
Staphylococcus aureus = assay: Antibacterial activity against methicillin-sensitive Staphylococcus aureus UAMS-1 after 24 hrs by broth microdilution method; conditions: UAMS-1, 24 h
Klebsiella aerogenes = assay: Antibacterial activity against Enterobacter aerogenes after 24 hrs by broth microdilution method

Compound | MBC (Pseudomonas aeruginosa) [µg/mL] | MIC (Pseudomonas aeruginosa) [µg/mL] | MBC (Enterococcus faecium) [µg/mL] | MIC (Enterococcus faecium) [µg/mL] | MBC (Klebsiella pneumoniae) [µg/mL] | MIC (Klebsiella pneumoniae) [µg/mL] | MBC (Acinetobacter baumannii) [µg/mL] | MIC (Acinetobacter baumannii) [µg/mL] | MBC (Staphylococcus aureus) [µg/mL] | MIC (Staphylococcus aureus) [µg/mL] | MBC (Klebsiella aerogenes) [µg/mL] | MIC (Klebsiella aerogenes) [µg/mL]
CC(=O)NCCC(=O)N[C@@H](Cc1ccc(F)cc1)C(=O)N1Cc2ccccc2C[C@H]1C(=O)N1CC2CCCCC2[C@H]1C(=O)NCCC(=O)N[C@@H](CN)C(=O)N1Cc2ccccc2C[C@H]1C(=O)N1CC2CCCCC2[C@H]1C(=O)NCCC(=O)N[C@@H](Cc1ccc(F)cc1)C(=O)N1Cc2ccccc2C[C@H]1C(=O)N1CC2CCCCC2[C@H]1C(=O)NCCC(=O)N[C@@H](CN)C(=O)N1Cc2ccccc2C[C@H]1C(=O)N[C@@H](CN)C(=O)N[C@@H](CN)C(=O)N[C@@H](CN)C(=O)N[C@@H](CN)C(=O)NC(C)=O (stereo partly drawn) (Ac-[βAla][Phe(4-F)][Tic][Pro(3ξ,4ξ-(CH2)4)][βAla][Dap][Tic][Pro(3ξ,4ξ-(CH2)4)][βAla][Phe(4-F)][Tic][Pro(3ξ,4ξ-(CH2)4)][βAla][Dap][Tic][Dap][Dap][Dap]-X1) | 50 (≈ 21.5 µM) | 25 (≈ 10.8 µM) | > 100 | 50 (≈ 21.5 µM) | 25 (≈ 10.8 µM) | 12.5 (≈ 5.38 µM) | 25 (≈ 10.8 µM) | 12.5 (≈ 5.38 µM) | > 100 | > 100 | 25 (≈ 10.8 µM) | 25 (≈ 10.8 µM)
CC(C)C[C@H](NC(=O)[C@@H](N)CCCCN)C(=O)N1Cc2ccccc2C[C@H]1C(=O)N1CC2CCCCC2[C@H]1C(=O)NCC(=O)N[C@@H](CCCCN)C(=O)N1Cc2ccccc2C[C@H]1C(=O)N1CC2CCCCC2[C@H]1C(=O)NCCC(=O)N[C@@H](Cc1ccccc1)C(=O)N1Cc2ccccc2C[C@H]1C(=O)N1CC2CCCCC2[C@H]1C(=O)NCC(=O)N[C@@H](CCCCN)C(=O)N1Cc2ccccc2C[C@H]1C(=O)N1CC2CCCCC2[C@H]1C(=O)NCCC(=O)N[C@@H](Cc1ccccc1)C(=O)N1Cc2ccccc2C[C@H]1C(=O)N1CC2CCCCC2[C@H]1C(=O)NCC(=O)N[C@@H](CCCCN)C(=O)N1Cc2ccccc2C[C@H]1C(=O)N1CC2CCCCC2[C@H]1C(=O)N[C@@H](CCCCN)C(=O)N[C@@H](CCCCN)C(=O)N[C@@H](CCCCN)C(=O)N[C@@H](CCCCN)C(N)=O (stereo partly drawn) (H-KL[Tic][Pro(3ξ,4ξ-(CH2)4)]GK[Tic][Pro(3ξ,4ξ-(CH2)4)][βAla]F[Tic][Pro(3ξ,4ξ-(CH2)4)]GK[Tic][Pro(3ξ,4ξ-(CH2)4)][βAla]F[Tic][Pro(3ξ,4ξ-(CH2)4)]GK[Tic][Pro(3ξ,4ξ-(CH2)4)]KKKK-NH2) | 50 (≈ 13.8 µM) | 25 (≈ 6.9 µM) | 25 (≈ 6.9 µM) | 6.25 (≈ 1.72 µM) | 50 (≈ 13.8 µM) | 50 (≈ 13.8 µM) | 25 (≈ 6.9 µM) | 6.25 (≈ 1.72 µM) | 50 (≈ 13.8 µM) | 50 (≈ 13.8 µM) | 100 (≈ 27.6 µM) | 50 (≈ 13.8 µM)
CC(C)C[C@H](NC(=O)[C@@H](N)CCCCN)C(=O)N1Cc2ccccc2C[C@H]1C(=O)N1CC2CCCCC2[C@H]1C(=O)NCC(=O)N[C@@H](CCCCN)C(=O)N1Cc2ccccc2C[C@H]1C(=O)N1CC2CCCCC2[C@H]1C(=O)N[C@@H](Cc1ccccc1)C(=O)N1Cc2ccccc2C[C@H]1C(=O)N1CC2CCCCC2[C@H]1C(=O)NCC(=O)N[C@@H](CCCCN)C(=O)N1Cc2ccccc2C[C@H]1C(=O)N1CC2CCCCC2[C@H]1C(=O)N[C@@H](Cc1ccccc1)C(=O)N1Cc2ccccc2C[C@H]1C(=O)N1CC2CCCCC2[C@H]1C(=O)NCC(=O)N[C@@H](CCCCN)C(=O)N1Cc2ccccc2C[C@H]1C(=O)N1CC2CCCCC2[C@H]1C(=O)N[C@@H](CCCCN)C(=O)N[C@@H](CCCCN)C(=O)N[C@@H](CCCCN)C(=O)N[C@@H](CCCCN)C(N)=O (stereo partly drawn) (H-KL[Tic][Pro(3ξ,4ξ-(CH2)4)]GK[Tic][Pro(3ξ,4ξ-(CH2)4)]F[Tic][Pro(3ξ,4ξ-(CH2)4)]GK[Tic][Pro(3ξ,4ξ-(CH2)4)]F[Tic][Pro(3ξ,4ξ-(CH2)4)]GK[Tic][Pro(3ξ,4ξ-(CH2)4)]KKKK-NH2) | > 100 | > 100 | 25 (≈ 7.18 µM) | 6.25 (≈ 1.79 µM) | 100 (≈ 28.7 µM) | > 100 | 50 (≈ 14.4 µM) | 12.5 (≈ 3.59 µM) | 50 (≈ 14.4 µM) | 50 (≈ 14.4 µM) | > 100 | > 100
CC(C)C[C@H](NC(=O)[C@@H](N)CCCCN)C(=O)N1Cc2ccccc2C[C@H]1C(=O)N1CC2CCCCC2[C@H]1C(=O)N[C@@H](CCCCN)C(=O)NCC(=O)N1Cc2ccccc2C[C@H]1C(=O)N1CC2CCCCC2[C@H]1C(=O)N[C@@H](Cc1ccccc1)C(=O)N1Cc2ccccc2C[C@H]1C(=O)N1CC2CCCCC2[C@H]1C(=O)N[C@@H](CCCCN)C(=O)NCC(=O)N1Cc2ccccc2C[C@H]1C(=O)N1CC2CCCCC2[C@H]1C(=O)N[C@@H](Cc1ccccc1)C(=O)N1Cc2ccccc2C[C@H]1C(=O)N1CC2CCCCC2[C@H]1C(=O)N[C@@H](CCCCN)C(=O)NCC(=O)N1Cc2ccccc2C[C@H]1C(=O)N1CC2CCCCC2[C@H]1C(=O)N[C@@H](CCCCN)C(=O)N[C@@H](CCCCN)C(=O)N[C@@H](CCCCN)C(=O)N[C@@H](CCCCN)C(N)=O (stereo partly drawn) (H-KL[Tic][Pro(3ξ,4ξ-(CH2)4)]KG[Tic][Pro(3ξ,4ξ-(CH2)4)]F[Tic][Pro(3ξ,4ξ-(CH2)4)]KG[Tic][Pro(3ξ,4ξ-(CH2)4)]F[Tic][Pro(3ξ,4ξ-(CH2)4)]KG[Tic][Pro(3ξ,4ξ-(CH2)4)]KKKK-NH2) | 50 (≈ 14.4 µM) | 50 (≈ 14.4 µM) | 6.25 (≈ 1.79 µM) | 6.25 (≈ 1.79 µM) | 100 (≈ 28.7 µM) | 50 (≈ 14.4 µM) | 12.5 (≈ 3.59 µM) | 12.5 (≈ 3.59 µM) | 50 (≈ 14.4 µM) | 50 (≈ 14.4 µM) | > 100 | > 100
